In patent US20210214734A1, “METHODS FOR SELECTIVELY INHIBITING MOLECULAR CHAPERONE CLIENTS AND COMPOSITIONS FOR USE THEREOF” (Research Foundation for the State University of New York, priority 2020, published 2021):
Where no end group is shown, it is not given here. [ ]: non-standard residue; d: D form. Phe(4-F) = N[C@@H](Cc1ccc(F)cc1)C(=O)O

How the values were obtained:
full length human Hsp90 = experiment: 19F NMR R2 filter binding to Hsp90; parameters: 19F NMR signal change in presence of Hsp90 (binding): dose or concentration left out as unconfirmed; conditions: for binding to Hsp90 when A01 and A02 are mixed: 19F NMR, peptides mixed; for 19F NMR signal change in presence of Hsp90 (binding): 19F R2 filter, peptides tested individually, A01
Method: (§1) All the NMR experiments have been recorded at 298° K with a Bruker FT NMR Avance III 600-MHz spectrometer equipped with a 5-mm CryoProbe™ QCI^1H/^19F-^13C/^15N-D quadruple resonance, a shielded z-gradient coil, and the automatic sample handling system such as a SAMPLEJET™ brand sampling system with temperature control.
(§2) ^19F NMR experiments are a well-recognized approach to study the interaction between small molecules or peptides and proteins. […] This is due to the large dynamic range defined as the difference of the NMR measured response in the free and protein-bound states. ^19F R2 filter NMR experiments are among the most sensitive techniques for weak binding detection. See Dalvit et al., Journal of American Chemical Society, 125, 7696-7703 (2003). The transverse relaxation rate R2 is a very sensitive parameter for these studies, due to the large Chemical Shift Anisotropy (CSA) of ^19F nucleus and to the large exchange contribution See Dalvit et al., Journal of American Chemical Society, 125, 7696-7703 (2003); the compounds/peptides that interact with the receptor will show a broadening and intensity reduction in their ^19F NMR signal in presence of the protein
(§3) The 5 mM stock solution peptides were prepared in 100% in DMSOd6. Solubility and purity of the peptides in PBS buffer pH 7.4, 10% D2O (for the lock signal) were checked by ^19F and ^1H NMR spectroscopy. 1D ^19F NMR experiments were recorded with proton decoupling with the Waltz-16 scheme during the acquisition period with an acquisition time of 0.95 s, a relaxation delay of 30 s. whereas 1D version of the NOESY (nuclear Overhauser effect spectroscopy) pulse sequence with H2O signal presaturation, a mixing time of 10 ms and a relaxation delay of 30 s was used for ^1H NMR experiments.
(§4) For the binding studies R2 filter experiments were recorded with the Carr-Purcell-Meibom-Gill scheme with a time interval of 23.5 ms between the 180° pulses with a loop of 2, an acquisition time of 0.95 s a D1 of 5 s and a number of scans of 512. All the ^19F chemical shifts are referenced to the CFCl3 signal in water.

[1] = target: Human Serum Albumin (HSA) (Homo sapiens, UniProt P02768); experiment: 19F NMR control for non-specific binding to HSA; conditions: 40 mM A01, A02 with 10 mM HSA
Method: as §1, §2, §3, §4

c-Abl = c-Abl protein level by immunoblot in treated HEK293 cells; type: cell-based, human; conditions: 10 μM A01 or A02 with and without TAT, 36 hours
Method: (§5) Human embryonic kidney (HEK293) and 786-O cells were acquired from the American Type Culture Collection (ATCC). HEK293 cells were grown in Dulbecco's Modified Eagle Medium (DMEM, Millipore-Sigma) and 786-O cells were grown in Roswell Park Memorial Institute (RPMI-1640, Millipore-Sigma) medium supplemented with 10% fetal bovine serum (FBS, Millipore-Sigma) in a CellQ incubator (Panasonic Healthcare) at 37° C. in 5% CO2.
(§6) Cultured cells were seeded 24 h prior to treatment. […]
(§7) Protein extraction from mammalian cells was carried out using methods previously described. See Woodford et al., Cell Reports, 14, 872-884 (2016). For immunoprecipitation, protein lysates were incubated with Hsp90 antibody for 2 h followed by incubation with protein G agarose (Qiagen) for 2 h at 4° C. Immunopellets were washed 4 times with fresh lysis buffer (20 mM Tris (pH7.4), 100 mM NaCl, 1 mM MgCl2, 0.1% NP40, protease inhibitor cocktail (Roche), and PhosSTOP (Roche)) and eluted with 5× Laemmli buffer. Precipitated proteins were separated by SDS-PAGE and transferred to nitrocellulose membranes. Co-immunoprecipitated proteins were detected by immunoblotting with the indicated antibodies, diluted in 5% non-fat dry milk reconstituted in TBST.

c-Abl-Hsp90 interaction = experiment: Hsp90 immunoprecipitation, c-Abl association in HEK293 cells; type: cell-based, human; conditions: 10 μM, 36 hours, IP of endogenous Hsp90
Method: as §5, §6, §7

c-Src = experiment: Immunoblot of unrelated client c-Src in HEK293 cells; type: cell-based, human; conditions: 10 μM, 36 hours, selectivity control
Method: as §5, §6, §7

Cdk4 = experiment: Immunoblot of unrelated client Cdk4 in HEK293 cells; type: cell-based, human; conditions: 10 μM, 36 hours, selectivity control
Method: as §5, §6, §7

Akt = experiment: Immunoblot of unrelated client Akt in HEK293 cells; type: cell-based, human; conditions: 10 μM, 36 hours, selectivity control
Method: as §5, §6, §7

Aha1-Hsp90 complex = experiment: Hsp90 immunoprecipitation, Aha1-Hsp90 complex in HEK293 cells; type: cell-based, human; conditions: 10 μM, 36 hours
Method: as §5, §6, §7

Hsp90α-FLAG = Hsp90α-FLAG (Homo sapiens, UniProt P07900); experiment: Biotinylated peptide streptavidin pulldown of Hsp90α; type: binding; conditions: for Hsp90 isoform specificity: Hsp90α vs Hsp90β, biotinylated peptide pulldown
Method: (§8) Total cell lysates prepared as described above were incubated with the indicated amounts of biotinylated peptide at 4° C. for 1 h. Streptavidin agarose beads (ThermoScientific) were added and incubated 1 additional hour with gentle rotation. Bound Hsp90 was detected by immunoblotting as described herein.

Cdc37 = target: T1, Cdc37 (Homo sapiens, UniProt Q16543); experiment: 19F NMR R2 filter binding to Cdc37; parameters: dose or concentration left out as unconfirmed
T1 sequence (Q16543 1-378): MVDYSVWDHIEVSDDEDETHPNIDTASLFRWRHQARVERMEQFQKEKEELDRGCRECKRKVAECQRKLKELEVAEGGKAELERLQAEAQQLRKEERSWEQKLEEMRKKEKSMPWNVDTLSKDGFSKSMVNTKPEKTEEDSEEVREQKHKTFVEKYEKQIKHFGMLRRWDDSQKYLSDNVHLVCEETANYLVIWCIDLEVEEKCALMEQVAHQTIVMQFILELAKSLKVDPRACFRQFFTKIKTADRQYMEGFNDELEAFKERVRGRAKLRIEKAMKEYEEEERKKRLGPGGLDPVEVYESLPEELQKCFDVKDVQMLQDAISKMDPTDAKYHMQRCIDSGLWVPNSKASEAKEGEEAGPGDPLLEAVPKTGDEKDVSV
Method: as §1, §2, §3, §4

786-O cells = experiment: Apoptosis by cleaved caspase-3 immunoblot in 786-O cells; type: cell-based; conditions: 786-O clear cell renal cell carcinoma cell line
Method: as §5
Cultured cells were seeded 24 h prior to treatment. Peptides were added to cells at 50% confluency at the indicated concentrations and incubated for 24 h, followed by protein extraction as described below.
as §7

Aha1 = Aha1 (Homo sapiens, UniProt O95433); experiment: 19F NMR R2 filter binding to Aha1; conditions: cAbl peptides at 10 mM
Method: as §1
^19F NMR experiments are a well-recognized approach to study the interaction between small molecules or peptides and proteins. […] This is due to the large dynamic range defined as the difference of the NMR measured response in the free and protein-bound states. ^19F R2 filter NMR experiments are among the most sensitive techniques for weak binding detection. […]
as §3, with “Solubility and purity of the peptides in PBS buffer pH 7.4, 10% D2O (for the lock signal) were checked by ^19F and ^1H NMR spectroscopy.” left out
For the binding studies R2 filter experiments were recorded with the Carr-Purcell-Meibom-Gill scheme with a time interval of 23.5 ms between the 180° pulses with a loop of 2, an acquisition time of 0.95 s a D1 of 5 s and a number of scans of 512. […]

Hsp90β-FLAG = Hsp90β-FLAG (Homo sapiens, UniProt P08238); experiment: Biotinylated peptide streptavidin pulldown of Hsp90β; type: binding; conditions: lysate of HEK293 overexpressing Hsp90β-FLAG
Method: as §8

Aha1, sequence (O95433 whole entry, species assumed): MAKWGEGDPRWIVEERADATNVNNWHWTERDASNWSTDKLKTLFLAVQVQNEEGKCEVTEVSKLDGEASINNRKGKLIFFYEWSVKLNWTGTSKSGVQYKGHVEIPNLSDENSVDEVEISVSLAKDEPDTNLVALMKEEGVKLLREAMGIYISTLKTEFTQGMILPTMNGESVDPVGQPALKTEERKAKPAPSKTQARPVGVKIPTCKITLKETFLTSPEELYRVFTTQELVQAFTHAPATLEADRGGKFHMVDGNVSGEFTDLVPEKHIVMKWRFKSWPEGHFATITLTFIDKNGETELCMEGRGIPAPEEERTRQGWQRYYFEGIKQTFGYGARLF
Hsp90β-FLAG, sequence (P08238 whole entry): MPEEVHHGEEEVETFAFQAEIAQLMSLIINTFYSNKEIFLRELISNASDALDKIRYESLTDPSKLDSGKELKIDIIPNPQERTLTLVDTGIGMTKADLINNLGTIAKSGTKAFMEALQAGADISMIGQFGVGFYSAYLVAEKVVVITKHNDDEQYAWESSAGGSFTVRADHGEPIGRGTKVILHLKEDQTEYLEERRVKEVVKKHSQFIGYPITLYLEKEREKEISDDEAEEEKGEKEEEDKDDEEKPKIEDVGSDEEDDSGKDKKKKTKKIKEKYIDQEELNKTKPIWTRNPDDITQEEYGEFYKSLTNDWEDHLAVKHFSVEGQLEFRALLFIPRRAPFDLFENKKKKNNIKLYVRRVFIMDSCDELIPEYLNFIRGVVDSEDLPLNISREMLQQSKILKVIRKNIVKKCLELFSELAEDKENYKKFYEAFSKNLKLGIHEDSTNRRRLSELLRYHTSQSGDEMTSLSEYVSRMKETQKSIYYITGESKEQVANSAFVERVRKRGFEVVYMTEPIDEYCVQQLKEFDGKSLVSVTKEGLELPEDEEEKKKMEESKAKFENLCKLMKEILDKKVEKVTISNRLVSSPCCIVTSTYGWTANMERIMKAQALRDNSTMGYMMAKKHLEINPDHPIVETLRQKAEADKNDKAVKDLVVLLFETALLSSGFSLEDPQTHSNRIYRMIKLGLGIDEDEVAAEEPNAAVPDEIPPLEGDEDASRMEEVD

Row | Substance | binding to Hsp90 when A01 and A02 are mixed (full length human Hsp90) | 19F NMR signal change in presence of Hsp90 (binding) (full length human Hsp90) | binding interaction with HSA by 19F NMR [1] | binding interaction with HSA by 19F NMR ([1]; listed as AblO2) | c-Abl protein levels (c-Abl) | dissociation of c-Abl from Hsp90 (c-Abl-Hsp90 interaction) | c-Src stability or activity (c-Src) | Cdk4 stability or activity (Cdk4) | Akt stability or activity (Akt) | Aha1-Hsp90 complex formation (Aha1-Hsp90 complex) | Hsp90 isoform specificity (Hsp90α-FLAG) | binding to Cdc37 by 19F NMR (Cdc37) | binding interaction with HSA by 19F NMR ([1]; listed as Braf02-pep) | apoptosis (elevation of cleaved caspase-3) (786-O cells) | binding interaction with HSA by 19F NMR ([1]; listed as Braf01-pep) | binding to Aha1 by 19F NMR (Aha1) | binding interaction with HSA by 19F NMR ([1]; listed as AblO1) | binding to Hsp90α in pulldown (Hsp90α-FLAG; biotinylated peptide, lysate of HEK293 overexpressing Hsp90α-FLAG) | binding to Hsp90β in pulldown (Hsp90β-FLAG)
1 | F(F)GGSPYPGIDLSQVYELLEK ([Phe(4-F)]GGSPYPGIDLSQVYELLEK) [A02] | continue to bind to Hsp90 even when they are mixed | decrease in the presence of Hsp90, indicating peptide-protein binding | neither A01 nor A02 showed binding interaction with HSA | do not interact with HSA | decrease of c-Abl protein levels | dissociation of c-Abl from Hsp90 | neither the related kinase c-Src nor the client kinases Cdk4 or Akt showed a defect in stability or activity | neither the related kinase c-Src nor the client kinases Cdk4 or Akt showed a defect in stability or activity | neither the related kinase c-Src nor the client kinases Cdk4 or Akt showed a defect in stability or activity | decreased Aha1-Hsp90 complex formation | neither peptide demonstrates isoform specificity | – | – | – | – | – | – | – | –
2 | FGTVYKGKWGGGGF(F)STKPQLAGGGNVTAPTPQ (FGTVYKGKWGGGG[Phe(4-F)]STKPQLAGGGNVTAPTPQ) [B-Raf-02] | – | no or very weak interaction | no interactions were detected | – | – | – | – | – | – | – | – | bound to Cdc37 | do not interact with HSA | – | – | – | – | – | –
3 | GEMGKGGKGRVPYPGMVNREVLDQVERGF(F)RM (GEMGKGGKGRVPYPGMVNREVLDQVERG[Phe(4-F)]RM) [c-Src02, c-Src mimic peptide] | – | – | – | – | – | – | – | – | – | – | – | – | – | except c-Src02, induced apoptosis | – | – | – | – | –
4 | GYSTKPQLAGGGNVTAPTPQGF(F)QHSGS (GYSTKPQLAGGGNVTAPTPQG[Phe(4-F)]QHSGS) [B-Raf-01] | – | no or very weak interaction | no interactions were detected | – | – | – | – | – | – | – | – | – | – | – | do not interact with HSA | – | – | – | –
5 | LGGGQF(F)GEVYGGVAVKTLGGGEFLDEAAVMK (LGGGQ[Phe(4-F)]GEVYGGVAVKTLGGGEFLDEAAVMK) [A01, F(F) = 4-Fluoro-L-phenylalanine] | continue to bind to Hsp90 even when they are mixed | decrease in the presence of Hsp90, indicating peptide-protein binding | neither A01 nor A02 showed binding interaction with HSA | – | decrease of c-Abl protein levels | dissociation of c-Abl from Hsp90 | neither the related kinase c-Src nor the client kinases Cdk4 or Akt showed a defect in stability or activity | neither the related kinase c-Src nor the client kinases Cdk4 or Akt showed a defect in stability or activity | neither the related kinase c-Src nor the client kinases Cdk4 or Akt showed a defect in stability or activity | decreased Aha1-Hsp90 complex formation | neither peptide demonstrates isoform specificity | showed the ability to bind Cdc37 | – | – | – | but not Aha1 | do not interact with HSA | binds with higher affinity to both isoforms of Hsp90 | binds with higher affinity to both isoforms of Hsp90
